# Laboratory results reported in the supplement of paper PMC10307832.
# Assays:
# Experiment in all cases: relative viability (nuclei count vs DMSO), 5 days (fraction); higher = more cells survive
# [1] = compound: CN(C)C[C@@H]1CCn2cc(c3ccccc32)C2=C(C(=O)NC2=O)c2cn(c3ccccc23)CCO1 [Ruboxistaurin]
# Procedure, shortened: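 Lung cancer cell lines in 1536-well plates were exposed by pinning to five library-drug doses (not always all listed) √10 apart, following an overnight hold at 37 °C. MetaXpress counted Hoechst-stained nuclei from 4× images taken after 5 days without medium change. Viability is the median ratio of treated-well to vehicle-well nuclei across plates. Plates required control CV below 25% and at least one doubling.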
# [2] = compound: CN(C)C[C@@H]1CCn2cc(c3ccccc32)C2=C(C(=O)NC2=O)c2cn(c3ccccc23)CCO1 [Ruboxistaurin] + O=C(CCCCCCC(=O)Nc1ccccc1)NO [Vorinostat] (partner 1 µM)
# Procedure, shortened: (§1)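 Lung cancer cell lines in 1536-well plates got either a single drug or a fixed anchor-drug dose together with five library-drug doses (not always all listed) in √10 steps, by pin tool, on the day after seeding. Nuclei were counted after 5 days, and relative viability is the treated-to-vehicle ratio of nuclei counts. Values are medians of duplicate plates.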
# [3] = compound: CN(C)C[C@@H]1CCn2cc(c3ccccc32)C2=C(C(=O)NC2=O)c2cn(c3ccccc23)CCO1 [Ruboxistaurin] + C[C@]1(O)C[C@@H](c2nc(-c3ccc4ccc(-c5ccccc5)nc4c3)c3c(N)nccn32)C1 [Linsitinib] (partner 1 µM)
# Procedure, shortened: as §1
# [4] = compound: CN(C)C[C@@H]1CCn2cc(c3ccccc32)C2=C(C(=O)NC2=O)c2cn(c3ccccc23)CCO1 [Ruboxistaurin] + CCNC(=O)c1noc(-c2cc(C(C)C)c(O)cc2O)c1-c1ccc(CN2CCOCC2)cc1 [Luminespib] (partner 0.01 µM)
# Procedure, shortened: as §1
# [5] = compound: CN(C)C[C@@H]1CCn2cc(c3ccccc32)C2=C(C(=O)NC2=O)c2cn(c3ccccc23)CCO1 [Ruboxistaurin] + C[C@@H](Oc1cc(-c2cnn(C3CCNCC3)c2)cnc1N)c1c(Cl)ccc(F)c1Cl [Crizotinib] (partner 1 µM)
# Procedure, shortened: as §1
Cell Line,relative viability ([1]; 0.08 µM),relative viability ([1]; 0.8 µM),relative viability ([1]; 2.53 µM),relative viability ([1]; 8 µM),relative viability ([2]; first compound 0.08 µM),relative viability ([2]; first compound 0.8 µM),relative viability ([2]; first compound 2.53 µM),relative viability ([2]; first compound 8 µM),relative viability ([3]; first compound 0.08 µM),relative viability ([3]; first compound 0.8 µM),relative viability ([3]; first compound 2.53 µM),relative viability ([3]; first compound 8 µM),relative viability ([4]; first compound 0.08 µM),relative viability ([4]; first compound 0.8 µM),relative viability ([4]; first compound 2.53 µM),relative viability ([4]; first compound 8 µM),relative viability ([5]; first compound 0.08 µM),relative viability ([5]; first compound 0.8 µM),relative viability ([5]; first compound 2.53 µM),relative viability ([5]; first compound 8 µM)
NCI-H1355,1.05,0.882,0.971,0.944,0.693,0.604,0.62,0.583,0.904,0.753,0.728,0.658,0.734,0.592,0.788,0.534,1.08,1,1.04,1
NCI-H1437,1,0.914,0.993,1.07,0.834,0.724,0.825,0.798,1.01,0.941,1.17,0.746,1.17,1.1,1.17,1.22,0.984,0.829,0.958,1.08
NCI-H1651,1.02,0.983,1,1.03,0.54,0.573,0.611,0.499,1.04,0.897,0.93,0.85,1.06,0.835,0.899,0.901,0.882,0.883,0.911,0.911
NCI-H1666,1.09,1.02,1.04,0.968,0.998,1.1,1.08,1.1,0.951,0.691,0.964,0.565,1.03,0.964,1.03,1.08,0.941,0.88,1.09,0.733
NCI-H1734,0.989,0.832,1.04,0.816,0.861,0.714,0.815,0.624,0.964,0.815,0.806,0.666,0.174,0.161,0.179,0.178,0.719,0.514,0.605,0.66
NCI-H1755,1.01,1.01,0.974,1.03,0.702,0.849,0.856,0.811,1.04,0.976,0.973,0.879,0.511,0.328,0.417,0.406,0.932,0.771,0.868,0.87
NCI-H1915,0.984,0.958,0.998,0.962,0.473,0.526,0.513,0.464,1.12,1.04,1.03,1.07,0.765,0.638,0.72,0.565,0.892,0.829,0.855,0.901
NCI-H1944,0.958,0.897,0.932,0.819,0.552,0.552,0.558,0.427,1.23,1.1,1.12,1.01,0.406,0.632,0.72,0.726,1.15,1.01,1.06,1.03
NCI-H1975,0.945,0.834,1.02,0.927,0.802,0.696,0.698,0.682,1.07,0.916,0.938,0.769,0.266,0.0934,0.223,0.209,0.954,0.846,0.954,0.862
NCI-H1993,1.18,0.756,0.908,0.696,0.856,0.711,0.727,0.542,0.63,0.695,0.62,0.703,1.06,0.599,0.926,0.887,0.88,0.726,0.944,0.708
NCI-H2009,1.04,0.946,1.06,1.19,0.794,0.7,0.756,0.821,1.18,1.14,1.18,1.23,1.14,1.01,0.984,1.15,1,0.959,1.06,1.08
NCI-H2023,1.02,0.788,1.08,0.735,0.676,0.546,0.667,0.441,0.721,0.53,0.616,0.492,0.679,0.426,0.668,0.344,0.691,0.588,0.565,0.503
NCI-H2085,1.02,0.942,1.07,1.04,0.914,0.82,0.842,0.815,1.01,0.806,0.861,0.809,0.53,0.4,0.49,0.42,1,0.684,0.874,0.917
NCI-H2087,1.17,0.976,1.05,1.06,0.977,0.672,0.723,0.975,1.13,0.874,0.98,0.884,0.175,0.215,0.162,0.156,0.898,0.735,1.08,1.15
NCI-H2126,1,0.898,1.04,0.934,0.844,0.636,0.871,0.621,0.744,0.641,0.749,0.665,0.961,0.893,0.983,0.893,1.03,0.92,1.07,1
